Experimental data reported in patent US11008325B2, “Inhibitors of cancer invasion, attachment, and/or metastasis” (VIRGINIA COMMONWEALTH UNIVERSITY, priority 2016, dated 2021).

Experiments:
[1] = tested on: Mcl-1, Bcl-xL, Bid, MT1-MMP-PEX domain, IL20R, RKIP, Jnk2, Ubc13, SIAH1, Ship2-SAM; assay: binding to panel of protein-protein interaction proteins; settings: 50 μM, 1:1 ligand/protein ratio
Procedure: In addition, the molecules are tested against a series of proteins available in the laboratory involved in protein-protein interactions including Mcl-1, Bcl-xL, Bid, MT1-MMP-PEX domain, IL20R, RKIP, Jnk2 (JIP-binding site Met labeled), Ubc13, SIAH1, and Ship2-SAM. […] In designing compounds using elements of the libraries, particular emphasis will be put on drug-like properties of the compounds. […] Additionally, the MTD and PK properties on selected compounds prior to their eventual evaluations in vivo in will be addressed. Preliminarily, PK studies with 113B7 indicate that the compound is stable and long-lived with nearly 100% bioavailability when administered IP (FIG. 53).

EGFR = EGFR activation in PC cells; format: cell-based
Procedure: Considering the key role of MDA-9/IGF-1R interactions in STAT-3 activation, which has a decisive impact on PC progression, small molecule inhibitors that bind to MDA-9 were tested for their ability to specifically interrupt MDA-9/IGF-1R interactions thereby affecting STAT3 activation and PC invasion. […] In PC cells, PDZ1i-mediated downregulation of c-Src activation is partially IGF-1R dependent. Another tyrosine kinase, EGFR, which is also an interacting partner of MDA-9, has been reported to activate c-Src in PC.

**Q.** Which results are given for `Cc1cc(NC(=O)c2nc3[nH]c4c(c(=O)n3n2)CCC4)c(C)cc1NC(=O)CCc1nnc(-c2ccccc2)o1` [113B7, N-(2,5-dimethyl-4-(3-(5-phenyl-1,3,4-oxadiazol-2-yl)propanamido)phenyl)-8-oxo-5,6,7,8-tetrahydro-4H-cyclopenta[d][1,2,4]triazolo[1,5-a]pyrimidine-2-carboxamide]?
**A.** binding to protein-protein interaction panel [1]: no appreciable binding; EGFR activation (EGFR): did not have any effect
